Experimental data published in patent US20100247517A1, “USE OF MNK INHIBITORS FOR THE TREATMENT OF ALZHEIMER'S DISEASE” (Boehringer Ingelheim Internationational GmbH, priority 2007, published 2010).

Legend:
Human Mnk1-GST = target: T1, Human Mnk1-GST (Homo sapiens, UniProt Q9BUB5); assay: In vitro phosphorylation of human Tau by Mnk1 (kinase reaction, immunoblotting); assay type: biochemical
T1 construct: GST; made in house; host or cells: E. coli
Procedure: (§1) Kinase reaction: The kinase reactions were carried out in a total volume of 30 μl in reaction buffer (20 mM HEPES/KOH pH 7.4, 10 mM MgCl2, 2 mM DTT, 0.1% Pluronic F127, 0.01% BSA) containing 500 μM ATP, 0.5 μM human recombinant Tau (USBiological, T1040-10), inhibitors and kinases as indicated in figures. Human Mnk1-GST and Mnk2-GST was expressed in E. coli and purifies by Äkta Explorer 100 (Amersham) and pre-activated by human recombinant Erk2 (DeveloGen). Aliquots were stored at −80° C. up to use. Recombinant human PKA (Calbiochem, 539482) was used as positive control. All components of reactions were pre-diluted in reaction buffer. […] Samples were analysed by Immunoblotting.
(§2) Immunoblotting: Laemmli sample buffer (Biorad) was added to the stopped kinase reactions, subjected to SDS-PAGE and electroblotted on a nitrocellulose membrane (Schleicher & Schüll). The transferred membrane was incubated with NET-G buffer (50 mM Tris/HCl pH 7.5, 5 mM EDTA, 150 mM NaCl, 0.05% Triton X-100, 0.25% (w/v) gelatine) containing 1/1000 (v/v) anti Tau (phospho S262) or anti Tau (phospho S356) antibodies (Abcam, ab4856 and ab4857) over night at 4° C. After washing with NET-G buffer the membrane was treated with NET-G buffer containing 1/5000 (v/v) HRP-conjugated anti rabbit IgG antibody (Pierce) for 2 hours at room temperature.
(§3) For loading control membrane was stripped with stripping buffer (200 mM glycine/HCl pH 2.2, 0.1% SDS, 0.1% Tween 20) for 3 hours at room temperature. The membrane was then treated with NET-G buffer containing 1/4000 (v/v) anti Tau antibody (Abcam, ab19326). After washing with NET-G buffer the membrane was incubated with NET-G buffer containing 1/5000 (v/v) HRP-conjugated anti goat IgG antibody (DakoCytomation). Signals were detected with chemiluminescence using ECL Super Signal West Dura kit (Pierce).

Human Mnk2-GST = target: T2, Human Mnk2-GST (Homo sapiens, UniProt Q9HBH9); assay: In vitro phosphorylation of human Tau by Mnk2 (kinase reaction, immunoblotting); assay type: biochemical
T2 construct: GST; made in house; host or cells: E. coli
Procedure: as §1, §2, §3

[1] = results summary of FIG. 2 / FIG. 3

T1 sequence (Q9BUB5 whole entry): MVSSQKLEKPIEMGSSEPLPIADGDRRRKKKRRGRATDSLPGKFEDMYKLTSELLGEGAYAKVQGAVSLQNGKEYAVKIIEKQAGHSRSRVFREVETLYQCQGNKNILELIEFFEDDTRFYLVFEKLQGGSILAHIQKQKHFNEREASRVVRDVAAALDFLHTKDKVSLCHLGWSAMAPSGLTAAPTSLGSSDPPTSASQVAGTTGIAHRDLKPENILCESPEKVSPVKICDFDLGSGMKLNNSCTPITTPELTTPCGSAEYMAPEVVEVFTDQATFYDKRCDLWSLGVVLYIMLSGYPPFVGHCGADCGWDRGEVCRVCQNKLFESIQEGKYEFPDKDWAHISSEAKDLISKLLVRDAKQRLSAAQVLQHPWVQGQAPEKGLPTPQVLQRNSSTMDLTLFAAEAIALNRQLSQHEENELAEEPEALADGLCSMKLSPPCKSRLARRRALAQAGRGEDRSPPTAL
T2 sequence (Q9HBH9 whole entry): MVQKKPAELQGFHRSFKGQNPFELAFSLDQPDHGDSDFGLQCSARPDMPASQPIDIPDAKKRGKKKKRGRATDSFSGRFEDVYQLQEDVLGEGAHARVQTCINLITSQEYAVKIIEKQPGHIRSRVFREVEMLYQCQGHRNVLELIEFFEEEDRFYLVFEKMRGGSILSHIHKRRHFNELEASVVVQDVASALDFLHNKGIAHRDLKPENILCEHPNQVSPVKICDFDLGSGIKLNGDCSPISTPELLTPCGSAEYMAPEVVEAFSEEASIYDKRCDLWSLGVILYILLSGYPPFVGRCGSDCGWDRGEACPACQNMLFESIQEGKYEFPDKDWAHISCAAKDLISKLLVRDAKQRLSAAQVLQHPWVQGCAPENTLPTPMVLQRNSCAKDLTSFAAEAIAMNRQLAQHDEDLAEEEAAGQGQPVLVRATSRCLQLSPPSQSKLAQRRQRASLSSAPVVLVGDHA

inhibition of in vitro phosphorylation of Ser262 in human Tau by Mnk1 (Human Mnk1-GST; 0.5 μM human Tau, 500 μM ATP, 120 min at 37° C., Erk2 (5 nM) used to activate Mnk, Western blot, FIG. 2A): in a dose dependent manner
inhibition of in vitro phosphorylation of Ser356 in human Tau by Mnk1 (Human Mnk1-GST; 0.5 μM human Tau, 500 μM ATP, 120 min at 37° C., Erk2 (5 nM) used to activate Mnk, Western blot, FIG. 2B): in a dose dependent manner
inhibition of Mnk1-dependent tau phosphorylation (Human Mnk1-GST; [1]): dose-dependent inhibition
inhibition of in vitro phosphorylation of Ser262 in human Tau by Mnk2 (Human Mnk2-GST; 0.5 μM human Tau, 500 μM ATP, 120 min at 37° C., Western blot, FIG. 2A / 3A): in a dose dependent manner
inhibition of in vitro phosphorylation of Ser356 in human Tau by Mnk2 (Human Mnk2-GST; 0.5 μM human Tau, 500 μM ATP, 120 min at 37° C., Western blot, FIG. 2B / 3B): in a dose dependent manner
inhibition of Mnk2-dependent tau phosphorylation (Human Mnk2-GST; [1]): dose-dependent inhibition
SMILES: CCOc1cc(C(N)=O)ccc1Nc1ncnc2scc(C)c12 [EDJ101401, 3-ethoxy-4-(5-methyl-thieno[2,3-D]pyrimidine-4-ylamino)-benzamide]
